In patent US9513299B2, “Methods for the detection and diagnosis of malaria using an electrochemical sensor” (EMPIRE TECHNOLOGY DEVELOPMENT LLC, priority 2010, dated 2016):
“Also recorded” adds a separate entry of the source.

Assays:
Type in all cases: biochemical
human hemoglobin (HbA0) = target: T1, human hemoglobin (HbA0) (Homo sapiens, UniProt P68871+P69905); assay: Peroxidase (electrocatalytic) activity of hemoglobin immobilized on nickel coated electrode, cyclic voltammetry with H2O2; details: for peroxidase activity of immobilized HbA0: IHP 150 μM or 2,3-DPG 2 mM, versus hemoglobin control (FIG. 5); for peroxidase activity of immobilized HbA0 / Electrocatalytic Activity in Healthy HbA0: 85 mM H2O2; for Electrocatalytic Activity in Healthy HbA0: change after adding modulator, IHP 150 μM, 2,3-DPG 2 mM
T1 construct: purchased Sigma chemicals H-267
Protocol: Crystal ferrous human hemoglobin (HbA0) was obtained from Sigma chemicals (H-267). The stock solution was prepared by dissolving 5 mg HbA0 in one milliliter of 0.05 M phosphate buffered saline (pH 7.2) (Sigma chemicals).
For the electrochemical experiments we used a computer controlled Autolab (PGSTAT) modular electrochemical system (Eco Chemie Ultecht, The Netherlands) that was operated with GPES software (Eco Chemie). All experiments were performed in a conventional three-electrode system cell with an Ag/AgCl reference electrode (BAST), a Pt wire as counter electrode, and a nickel coated chip as working electrode at ambient room temperature (21° C.).
Cyclic voltammetry was used for the immobilization of hemoglobin onto nickel coated electrodes following a similar approach as Salimi et al. To immobilize hemoglobin on the electrode surface, the electrodes were immersed in fresh 0.05 M phosphate buffer solution (pH 7.2) containing 5 mg ml-1 hemoglobin and the potential was repetitively cycled (30 scans) from 1 to −0.5 V vs. Ag/AgCI at a scan rate of 100 mV s^−1. After immobilization, the chips were washed thoroughly with phosphate buffer and subsequently subjected to cyclovoltammetric measurements in the presence of 0-8 M urea.
After hemoglobin immobilization the chips were incubated in presence of 0-8 M urea for 30 min. Hydrogen peroxide (85 mM) was added to monitor the peroxidase activity change for the unfolded protein. All the experiments were performed with the setup described for electrochemical measurements. The potential was repetitively cycled (3 scans) from −0.5 to 0.5 V vs. Ag/AgCI at a scan rate of 100 mV s^−1. In a control experiment the same electrochemical measurements were performed on a reference chip without immobilized hemoglobin.
In a control experiment, after the immobilization of hemoglobin on the chip, the tetramer dimer equilibrium was shifted towards dimer by inositol hexaphosphate at a final concentration of 150 μM and electrochemical measurements were performed. The potential was repetitively cycled (3 scans) from −0.5 to 0.5 V vs. Ag/AgCI at a scan rate of 100 mV s^−1 as described before. The peroxidase activity of hemoglobin was also measured under this condition by adding 85 mM hydrogen peroxide. In another control experiment, the same electrochemical and peroxidase activity measurements were performed on immobilized hemoglobin in presence of the tetramer stabilizer 2,3-DPG at a final concentration of 2 mM.

[1] = target: T2, hemoglobin samples from malaria patients (Malaria-Infected HbA0) (Homo sapiens, UniProt P68871+P69905); assay: Electrocatalytic activity of immobilized hemoglobin from whole blood in the presence of allosteric modulators (Example 4); details: change after adding modulator; IHP 150 μM, 2,3-DPG 2 mM; 85 mM H2O2
T2 construct: Hemoglobin from whole blood of test subjects is immobilized to the surface of electrodes; from tissue; host or cells: whole blood of malaria patients
Protocol: (§1) The assay of this example is illustrated in FIG. 8. Hemoglobin from whole blood of test subjects is immobilized to the surface of electrodes in two separate reaction cells as described in Example 1. Hydrogen peroxide at a final concentration of 85 mM is added in PBS to monitor the electrocatalytic activity for the immobilized protein. All the experiments are performed with the setup described above. The potential is repetitively cycled (3 scans) from −0.5 to 0.5 V vs. Ag/AgCl at a scan rate of 100 mV s^−1. This device is linked to a computer to record the current.
(§2) Next, inositol hexaphosphate (IHP) is added to one of the reaction cells at a final concentration of 150 μM. IHP is used to shift the tetramer/dimer equilibrium completely towards dimer. The effects are visualized through electrochemical measurements when the potential is repetitively cycled (3 scans) from −0.5 to 0.5 V vs. Ag/AgCl at a scan rate of 100 mV s^−1.
(§3) 2,3 diphosphoglycerate (2,3-DPG) is added to the second reaction cell at a final concentration of 2 mM. The stabilization of the immobilized HbA0 by 2,3-DPG, will result in higher electrocatalytic activity than normal due to the presence of more tetrameric protein molecules.

[2] = target: T3, hemoglobin samples from healthy subjects (Homo sapiens, UniProt P68871+P69905); assay: as above; details: after addition of IHP 150 μM or 2,3-DPG 2 mM; 85 mM H2O2
T3 construct: Hemoglobin from whole blood of test subjects is immobilized to the surface of electrodes; from tissue; host or cells: whole blood of healthy subjects
Protocol: as §1, §2, §3

T1 sequence (P69905 2-142 limits assumed): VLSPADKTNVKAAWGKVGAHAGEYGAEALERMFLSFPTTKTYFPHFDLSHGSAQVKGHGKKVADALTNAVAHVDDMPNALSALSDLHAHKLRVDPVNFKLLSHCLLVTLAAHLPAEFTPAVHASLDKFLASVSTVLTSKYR
T1 sequence (P68871 2-147 limits assumed): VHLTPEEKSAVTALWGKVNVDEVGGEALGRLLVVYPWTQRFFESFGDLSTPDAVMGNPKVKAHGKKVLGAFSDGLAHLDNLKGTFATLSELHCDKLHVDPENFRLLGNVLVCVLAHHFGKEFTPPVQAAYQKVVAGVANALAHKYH
T2 sequence (P69905 2-142): as the sequence (P69905 2-142 limits assumed) above
T2 sequence (P68871 2-147): as the sequence (P68871 2-147 limits assumed) above
T3 sequence (P69905 2-142 limits assumed): as the sequence (P69905 2-142 limits assumed) above
T3 sequence (P68871 2-147 limits assumed): as the sequence (P68871 2-147 limits assumed) above

electrochemical current (peroxidase activity of hemoglobin immobilized chip) (human hemoglobin (HbA0); 0-8 M urea, 30 min incubation, 85 mM H2O2 (FIG. 4)) | peroxidase activity of immobilized HbA0 (human hemoglobin (HbA0)) | Electrocatalytic Activity in Healthy HbA0 (human hemoglobin (HbA0)) | current measured at the electrode surface, hemoglobin samples from healthy subjects [2] | SMILES | Electrocatalytic Activity in Malaria-Infected HbA0 [1]
decrease | – | – | – | NC(N)=O [urea] | –
– | increased | Increase | increase | O=C(O)C(COP(=O)(O)O)OP(=O)(O)O (stereo not drawn) [2,3-DPG, 2,3-diphosphoglycerate] | not be a significant change; also recorded: No change
– | decrease | Decrease | decrease | O=P(O)(O)O[C@H]1[C@H](OP(=O)(O)O)[C@@H](OP(=O)(O)O)[C@H](OP(=O)(O)O)[C@@H](OP(=O)(O)O)[C@H]1OP(=O)(O)O [IHP, inositol hexaphosphate] | not be a significant change; also recorded: No change
